According to the NIST ThermoML archive (doi:10.1016/j.fluid.2013.06.019):
Numbers after ± are expanded uncertainties.

details: Crystal; Heating/Cooling curves

Row | SMILES | Triple point temperature
1 | C=C(F)C(F)(F)F [2,3,3,3-tetrafluoro-1-propene] | 122.6 ± 2 K
2 | O=C=O [carbon dioxide] | 216.6 ± 2 K
3 | F/C=C/C(F)(F)F [trans-1,3,3,3-tetrafluoropropene] | 168.8 ± 2 K
